Measurements published in US12234233B2, “Crystal form of phosphodiesterase inhibitor, preparation method therefor and use thereof” (TRANSTHERA SCIENCES (NANJING), INC., priority 2019, dated 2025).

How the values were obtained:
Format in all cases: physicochemical
[1] = Solubility in test solutions at different pHs and water; details: 37° C.
Method: Test substances: the compound of formula (I) was prepared by example 1 of the present invention, the crystal form I was prepared by example 2 of the present invention, the crystal form II was prepared by example 16 of the present invention, the crystal form III was prepared by example 20 of the present invention, the crystal form IV was prepared by example 24 of the present invention, the crystal form V was prepared by example 25 of the present invention, the crystal form VI was prepared by example 27 of the present invention, and the crystal form VII was prepared by example 31 of the present invention.
Preparation of Buffered Salt Solutions at Different pHs:
hydrochloric acid solution at pH 1.0:9 ml of hydrochloric acid was pipetted, and water was added for dilution to 1000 ml; the mixture was mixed homogeneously to obtain a hydrochloric acid solution at pH 1.03. Phosphate buffered solution at pH 4.5:1.56 g of sodium dihydrogen phosphate dihydrate was weighed, and 200 ml of water was added to obtain a phosphate buffered solution at pH 4.50. Phosphate buffered solution at pH 6.8:1.56 g of sodium dihydrogen phosphate dihydrate was weighed, and 200 ml of water was added; and the mixture was adjusted to pH 6.80 with 1 mol/L sodium hydroxide solution.
preparation of buffered solutions at different pHs (samples for determining solubility):
50 mg of each test substance was weighed, and 5 ml of the hydrochloric acid solution (pH 1.0) was added; and the mixture was mixed homogeneously with shaking. About 2.5 mg of each test substance was weighed, and 5 ml of the phosphate buffered solution (pH 4.5), 5 ml of the phosphate buffered solution (pH 6.8), and 5 ml of ultrapure water were added, respectively; the mixture was mixed homogeneously with shaking, and then placed in a 37° C. water bath shaker for shaking; the samples were collected at 24 hours and subjected to centrifugation; and the supernatant was taken and directly injected (if the solubility was high, the supernatant was diluted with a 0.1 mol/L hydrochloric acid solution to an appropriate multiple and then injected).
The solubility of the samples was quantitatively calculated according to the single-point external standard method.

[2] = Stability test of crystal form I (influencing factors)
Method: Test substances: the crystal form I was prepared by example 2 of the present invention.
Method: the appropriate amount of crystal form I samples were taken and placed openly at 60° C. and RH 92.5% under light; and the samples were collected on day 5, day 10, and day 30 to investigate changes in the trait, content, and moisture of the samples.

[3] = Stability test of different crystal forms
Method: Test substances: the crystal form I was prepared by example 2 of the present invention, the crystal form II was prepared by example 16 of the present invention, the crystal form III was prepared by example 20 of the present invention, the crystal form IV was prepared by example 24 of the present invention, the crystal form V was prepared by example 25 of the present invention, the crystal form VI was prepared by example 27 of the present invention, and the crystal form VII was prepared by example 31 of the present invention.
Method: the appropriate amount of different test substances were taken, and placed at 105° C. for 3 days, and at 60° C. and RH 92.5% under light for 5 days and 10 days, respectively; and the samples were collected on day 0, day 3, day 5 and day 10 to investigate the changes in the trait and content of the samples.
Table 5 and Table 6 show the results of the trait and content after placement at 105° C. for 3 days. Table 7 and Table 8 show the results of the trait and content after placement at 60° C. and RH 92.5% under light for 5 days. Table 9 and Table 10 show the results of the trait and content after placement at RH 92.5% under light for 10 days.

[4] = Placed openly at 60° C. for 5 days
[5] = Placed openly at 60° C. for 10 days
[6] = Placed openly at 60° C. for 30 days
[7] = Placed openly at RH 92.5% for 5 days
[8] = Placed openly at RH 92.5% for 10 days
[9] = Placed openly at RH 92.5% for 30 days
[10] = Placed openly under light for 5 days
[11] = Placed openly under light for 10 days
[12] = placed openly under light for 30 days

CCc1cc2c(N3CCC(C)(OC)CC3)c(C#N)c(=O)[nH]c2cn1 [Crystal form I, 6-ethyl-4-(4-methoxy-4-methylpiperidin-1-yl)-2-oxo-1,2-dihydro-1,7-diazanaphthal ene-3-carbonitrile]
24-hour solubility ([1]; Water): 110 µg/mL
24-hour solubility ([1]; pH 1.0 hydrochloric acid solution): 8600 µg/mL
24-hour solubility ([1]; pH 4.5 phosphate buffered solution): 130 µg/mL
24-hour solubility ([1]; pH 6.8 phosphate buffered solution): 110 µg/mL
Content ([2]; 0 day): 99.7%
Moisture ([2]; 0 day): 0.08%
Trait ([2]; 0 day): Yellow powder
Content [2, 4]: 99.8%
Moisture [2, 4]: 0.06%
Trait [2, 4]: Yellow powder
Content [2, 5]: 99.8%
Moisture [2, 5]: 0.10%
Trait [2, 5]: Yellow powder
Content [2, 6]: 100.1%
Moisture [2, 6]: 0.12%
Trait [2, 6]: Yellow powder
Content [2, 7]: 99.7%
Moisture [2, 7]: 0.04%
Trait [2, 7]: Yellow powder
Content [2, 8]: 100.3%
Moisture [2, 8]: 0.09%
Trait [2, 8]: Yellow powder
Content [2, 9]: 100.5%
Moisture [2, 9]: 0.09%
Trait [2, 9]: Yellow powder
Content [2, 10]: 99.7%
Moisture [2, 10]: 0.06%
Trait [2, 10]: Yellow powder
Content [2, 11]: 99.3%
Moisture [2, 11]: 0.13%
Trait [2, 11]: Yellow powder
Content [2, 12]: 100.0%
Moisture [2, 12]: 0.09%
Trait [2, 12]: Yellow powder
Content ([3]; 0 day): 99.7%
Trait ([3]; 0 day): Yellow powder
Content ([3]; Placed at 60° C. for 5 days): 99.8%
Content ([3]; Placed at RH 92.5% for 5 days): 99.7%
Content ([3]; Placed at RH 92.5% for 10 days): 100.3%
Trait ([3]; Placed at RH 92.5% for 10 days): Yellow powder
Content ([3]; Placed under light for 5 days): 99.7%
Content ([3]; Placed under light for 10 days): 99.3%
Trait ([3]; Placed under light for 10 days): Yellow powder
